# From PubChem BioAssay (NCI)
#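 Cells were grown in 96-well plates and exposed to each compound for 48 hours at five concentrations; endpoints were interpolated linearly between bracketing concentrations, or set to the highest concentration if not reached. Abbreviation: GI50, concentration required for 50% inhibition of growth. The concentration for full growth arrest is given as TGI.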
# Key:
# Assay in all cases: growth of human tumour cells (NCI), 48 h
# [1] = test system: COLO 205 colon
# [2] = test system: CAKI-1 renal
# [3] = test system: SK-MEL-2 melanoma
# [4] = test system: UO-31 renal
# [5] = test system: RPMI-8226 leukemia
# [6] = test system: CCRF-CEM leukemia
# [7] = test system: SF-539 CNS
# [8] = test system: SNB-75 CNS
# [9] = test system: T-47D breast
# [10] = test system: OVCAR-8 ovarian
# [11] = test system: HS 578T breast
# [12] = test system: K-562 leukemia
# [13] = test system: HOP-92 NSCLC
# [14] = test system: M14 melanoma
# [15] = test system: A498 renal
# [16] = test system: UACC-257 melanoma
# [17] = test system: SF-268 CNS
# [18] = test system: OVCAR-4 ovarian
# [19] = test system: PC-3 prostate
# [20] = test system: SW-620 colon
# [21] = test system: TK-10 renal
# [22] = test system: HCT-116 colon
# [23] = test system: LOX IMVI melanoma
# [24] = test system: MOLT-4 leukemia
# [25] = test system: NCI-H226 lung
# [26] = test system: DU-145 prostate
# [27] = test system: MDA-MB-435
# [28] = test system: OVCAR-5 ovarian
# [29] = test system: NCI-H23 lung
# [30] = test system: 786-0 renal
# [31] = test system: SK-MEL-28 melanoma
# [32] = test system: SK-OV-3 ovarian
# [33] = test system: UACC-62 melanoma
# [34] = test system: HT29 colon
# [35] = test system: MALME-3M melanoma
# [36] = test system: NCI-H522 lung
# [37] = test system: MDA-MB-231 breast
# [38] = test system: HL-60(TB) leukemia
# [39] = test system: U251 CNS
# [40] = test system: ACHN renal
# [41] = test system: SN12C renal
# [42] = test system: HCT-15 colon
# [43] = test system: SF-295 CNS
# [44] = test system: IGROV1 ovarian
# [45] = test system: SK-MEL-5 melanoma
# [46] = test system: SNB-19 CNS
# [47] = test system: SR leukemia
# [48] = test system: NCI/ADR-RES ovarian
# [49] = test system: A549 NSCLC
# [50] = test system: RXF 393 renal
# [51] = test system: KM12 colon
# [52] = test system: MDA-MB-468 breast
# [53] = test system: MCF7 breast
# [54] = test system: OVCAR-3 ovarian
# [55] = test system: NCI-H460 lung
# [56] = test system: BT-549 breast
# [57] = test system: HCC-2998 colon
# [58] = test system: HOP-62 NSCLC
# [59] = test system: EKVX NSCLC
smiles,measurement,setting,value
c1ccc(CSc2nnc(-c3ccc4nc(-c5ccccc5)[nH]c4c3)o2)cc1,GI50,[1],32.6 µM
same,TGI,[1],> 100 µM
same,GI50,[2],10.5 µM
same,TGI,[2],22.2 µM
same,GI50,[3],17 µM
same,TGI,[3],64.1 µM
same,GI50,[4],11.3 µM
same,TGI,[4],23.7 µM
same,GI50,[5],7.03 µM
same,TGI,[5],> 100 µM
same,GI50,[6],8.83 µM
same,TGI,[6],> 100 µM
same,GI50,[7],11.3 µM
same,TGI,[7],23.4 µM
same,GI50,[8],10.8 µM
same,TGI,[8],24.8 µM
same,GI50,[9],3.6 µM
same,TGI,[9],19.1 µM
same,GI50,[10],14.6 µM
same,TGI,[10],30.4 µM
same,GI50,[11],18.8 µM
same,TGI,[11],57.2 µM
same,GI50,[12],8.05 µM
same,TGI,[12],> 100 µM
same,GI50,[13],13.3 µM
same,TGI,[13],39.9 µM
same,GI50,[14],14.6 µM
same,TGI,[14],36.5 µM
same,GI50,[15],12.4 µM
same,TGI,[15],25.4 µM
same,GI50,[16],23.6 µM
same,TGI,[16],85.2 µM
same,GI50,[17],14.1 µM
same,TGI,[17],38.8 µM
same,GI50,[18],11.1 µM
same,TGI,[18],23.3 µM
same,GI50,[19],11.3 µM
same,TGI,[19],32.3 µM
same,GI50,[20],17.8 µM
same,TGI,[20],40.3 µM
same,GI50,[21],14.8 µM
same,TGI,[21],29.7 µM
same,GI50,[22],11.9 µM
same,TGI,[22],25.7 µM
same,GI50,[23],15.8 µM
same,TGI,[23],34 µM
same,GI50,[24],5.75 µM
same,TGI,[24],> 100 µM
same,GI50,[25],12.6 µM
same,TGI,[25],37.4 µM
same,GI50,[26],16.2 µM
same,TGI,[26],37 µM
same,GI50,[27],12 µM
same,TGI,[27],28.3 µM
same,GI50,[28],24.1 µM
same,TGI,[28],97.7 µM
same,GI50,[29],22.9 µM
same,TGI,[29],73.5 µM
same,GI50,[30],8.83 µM
same,TGI,[30],22.9 µM
same,GI50,[31],14.7 µM
same,TGI,[31],33 µM
same,GI50,[32],18.7 µM
same,TGI,[32],48.5 µM
same,GI50,[33],13.8 µM
same,TGI,[33],31.4 µM
same,GI50,[34],6.24 µM
same,TGI,[34],> 100 µM
same,GI50,[35],12.5 µM
same,TGI,[35],28.3 µM
same,GI50,[36],12.1 µM
same,TGI,[36],39 µM
same,GI50,[37],16.8 µM
same,TGI,[37],34.7 µM
same,GI50,[38],24.2 µM
same,TGI,[38],> 100 µM
same,GI50,[39],13.8 µM
same,TGI,[39],29.8 µM
same,GI50,[40],14.3 µM
same,TGI,[40],28 µM
same,GI50,[41],12.1 µM
same,TGI,[41],25.7 µM
same,GI50,[42],8.29 µM
same,TGI,[42],28.8 µM
same,GI50,[43],10.4 µM
same,TGI,[43],24 µM
same,GI50,[44],20.4 µM
same,TGI,[44],46 µM
same,GI50,[45],7.25 µM
same,TGI,[45],> 100 µM
same,GI50,[46],14.3 µM
same,TGI,[46],30 µM
same,GI50,[47],22.4 µM
same,TGI,[47],> 100 µM
same,GI50,[48],11.1 µM
same,TGI,[48],37.3 µM
same,GI50,[49],12 µM
same,TGI,[49],28.7 µM
same,GI50,[50],4.77 µM
same,TGI,[50],22.6 µM
same,GI50,[51],29.4 µM
same,TGI,[51],> 100 µM
same,GI50,[52],7.57 µM
same,TGI,[52],27.7 µM
same,GI50,[53],11.1 µM
same,TGI,[53],26.4 µM
same,GI50,[54],15.9 µM
same,TGI,[54],33.6 µM
same,GI50,[55],12.3 µM
same,TGI,[55],27.5 µM
same,GI50,[56],12.8 µM
same,TGI,[56],30.2 µM
same,GI50,[57],34.8 µM
same,TGI,[57],> 100 µM
same,GI50,[58],20.2 µM
same,TGI,[58],44.8 µM
same,GI50,[59],14.5 µM
same,TGI,[59],> 100 µM
